Assay results: PMC2716488, “Functional Expression of a DNA-Topoisomerase IB from Cryptosporidium parvum” (Journal of Biomedicine and Biotechnology, 2009)

Molecular target: T1, CpTopIB (Cryptosporidium parvum, UniProt Q5CY81)
T1 construct: gene cgd7_3350; expressed from YCpGAL in S. cerevisiae EKY3 (top1 deleted), purified on phosphocellulose and phenyl-sepharose; monomer; no tag mentioned
T1 sequence (Q5CY81 13-653): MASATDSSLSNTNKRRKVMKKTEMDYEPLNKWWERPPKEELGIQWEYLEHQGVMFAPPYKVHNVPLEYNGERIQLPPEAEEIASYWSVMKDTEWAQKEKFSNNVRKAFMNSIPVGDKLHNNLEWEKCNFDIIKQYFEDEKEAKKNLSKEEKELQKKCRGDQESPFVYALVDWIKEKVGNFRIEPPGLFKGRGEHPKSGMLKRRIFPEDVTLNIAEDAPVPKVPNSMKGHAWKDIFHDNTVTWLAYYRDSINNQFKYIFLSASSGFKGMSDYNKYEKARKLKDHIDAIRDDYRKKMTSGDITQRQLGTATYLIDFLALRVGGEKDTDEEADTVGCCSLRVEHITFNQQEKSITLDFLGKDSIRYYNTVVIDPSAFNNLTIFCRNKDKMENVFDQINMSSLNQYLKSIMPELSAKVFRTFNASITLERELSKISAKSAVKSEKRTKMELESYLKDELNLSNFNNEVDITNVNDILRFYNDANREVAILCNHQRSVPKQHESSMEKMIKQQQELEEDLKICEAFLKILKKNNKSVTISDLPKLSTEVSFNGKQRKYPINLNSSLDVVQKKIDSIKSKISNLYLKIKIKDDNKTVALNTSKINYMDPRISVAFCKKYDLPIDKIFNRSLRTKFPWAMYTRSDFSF
Experiment: DNA cleavage assay, nicked DNA on agarose gel
Assay type: biochemical
Settings: supercoiled phiX174 RF I DNA, pH 7.5, 50 mM KCl, 1% DMSO, 30 or 37°C; stabilises the enzyme-DNA cleavable complex

In the case of CC[C@@]1(O)C(=O)OCc2c1cc1n(c2=O)Cc2cc3ccccc3nc2-1 [CPT, camptothecin], the “nicked-DNA increase at 10 and 100 μM” value is reported as “There is a dose-dependent nicked-DNA increase for CPT and topotecan”.
With CC[C@@]1(O)C(=O)OCc2c1cc1n(c2=O)Cc2cc3c(CN(C)C)c(O)ccc3nc2-1 [topotecan] the “nicked-DNA increase at 10 and 100 μM” value was “There is a dose-dependent nicked-DNA increase for CPT and topotecan”.
